Source: patent publication US20230407243A1, “GENETIC PLATFORM TO INVESTIGATE THE FUNCTIONS OF BACTERIAL DRUG EFFLUX PUMPS” (priority 2022, published 2023)

What was measured:
Type in all cases: cell-based, Escherichia coli
E. coli EKO-35 = assay: microbe, parasite or virus in culture; conditions: for Fold change of MICs: EKO-35 compared to EKO-35 (reference); for Minimum inhibitory concentration (MIC), EKO-35: Table 10, without pore; for Minimum inhibitory concentration (MIC), EKO-35 / Minimum Inhibitory Concentration, EKO-35: technical duplicate; for Minimum Inhibitory Concentration, EKO-35: Table 13A, non-porinated
Procedure, shortened: (§1)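 Turbidity (OD600, pre-incubation subtracted) defined growth after 18 h at 37 °C in MHB II. The inoculum was diluted 1/2000 from an OD600 ~1.0 PBS suspension of an overnight LB culture. Compounds were run as duplicate twofold dilutions.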

E. coli ΔtolC = assay: microbe, parasite or virus in culture; conditions: technical duplicate; for Minimum inhibitory concentration (MIC), ΔtolC: Table 10, without pore; for Minimum Inhibitory Concentration, ΔtolC: Table 13A, non-porinated
Procedure, shortened: as §1

[1] = tested on: wild-type E. coli K-12 str. BW25113; assay: microbe, parasite or virus in culture; conditions: technical duplicate; for Minimum inhibitory concentration (MIC), K-12: Table 10, without pore; for Minimum Inhibitory Concentration, K-12: Table 13A, non-porinated
Procedure, shortened: as §1

EKO-35 araC::mdtBC = assay: MIC susceptibility profiling, efflux platform; conditions: for Fold change of MICs: EKO-35 araC::mdtBC compared to EKO-35; for Minimum Inhibitory Concentration, EKO-35 araC::mdtBC: Table 13B, non-porinated, technical duplicate
Procedure, shortened: as §1

EKO-35 araC::mdtEF = assay: MIC susceptibility profiling, efflux platform; conditions: for Fold change of MICs: EKO-35 araC::mdtEF compared to EKO-35; for Minimum Inhibitory Concentration, EKO-35 araC::mdtEF: Table 13A, non-porinated, technical duplicate
Procedure, shortened: as §1

wild-type (WT) K-12-Pore = assay: microbe, parasite or virus in culture; conditions: technical duplicate; for Minimum inhibitory concentration (MIC), Pore K-12: Table 10, with pore; for Minimum inhibitory concentration, K-12 (WT)-Pore: Table 14A, porinated
Procedure, shortened: (§2)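 Strains carry the fhuA ΔC/Δ4L pore integrated between glmS and pstS under a constitutive promoter, with pore activity checked by vancomycin susceptibility. Overnight LB cultures were adjusted in PBS pH 7.4 to OD600 ~1.0 and diluted 1/2000 into MHB II. 2-fold compound titrations were read by OD600 after 18 h at 37 °C.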

ΔtolC-Pore = assay: microbe, parasite or virus in culture; conditions: technical duplicate; for Minimum inhibitory concentration (MIC), Pore ΔtolC: Table 10, with pore; for Minimum inhibitory concentration, ΔtolC-Pore: Table 14A, porinated
Procedure, shortened: as §2

EKO-35-Pore = assay: MIC susceptibility profiling, porinated strain; conditions: for Fold changes of MICs: EKO-35-Pore compared to EKO-35-Pore (reference); for Minimum inhibitory concentration (MIC), Pore EKO-35: Table 10, with pore; for Minimum inhibitory concentration (MIC), Pore EKO-35 / Minimum inhibitory concentration, EKO-35-Pore: technical duplicate; for Minimum inhibitory concentration, EKO-35-Pore: Table 14A, porinated
Procedure, shortened: as §2

EKO-35 araC::acrB Pore = assay: MIC susceptibility profiling, porinated efflux platform; conditions: for Fold changes of MICs: EKO-35 araC::acr-B Pore compared to EKO-35-Pore; for Minimum inhibitory concentration, EKO-35 araC::acrB Pore: Table 14A, porinated, technical duplicate
Procedure, shortened: as §2

[2] = tested on: EKO-35 araC::acrBD408A Pore; assay: as above; conditions: for Fold changes of MICs: EKO-35 araC::acrBD408A Pore compared to EKO-35-Pore; for Minimum inhibitory concentration: EKO-35 araC::acrBD408A Pore, technical duplicate
Procedure, shortened: as §2

EKO-35 araC::acrD Pore = assay: as above; conditions: for Fold changes of MICs: EKO-35 araC::acrD Pore compared to EKO-35-Pore; for Minimum inhibitory concentration, EKO-35 araC::acrD Pore: Table 14A, porinated, technical duplicate
Procedure, shortened: as §2

EKO-35 araC::acrEF Pore = assay: as above; conditions: for Minimum inhibitory concentration, EKO-35 araC::acrEF Pore: Table 14A, porinated, technical duplicate
Procedure, shortened: as §2

EKO-35 araC::emrAB Pore = assay: as above; conditions: for Fold changes of MICs: EKO-35 araC::emrAB Pore compared to EKO-35-Pore; for Minimum inhibitory concentration: EKO-35 araC::emrAB Pore, technical duplicate
Procedure, shortened: as §2

EKO-35 araC::emrKY Pore = assay: as above; conditions: for Fold changes of MICs: EKO-35 araC::emrKY Pore compared to EKO-35-Pore; for Minimum inhibitory concentration: EKO-35 araC::emrKY Pore, technical duplicate
Procedure, shortened: as §2

EKO-35 araC::macAB Pore = assay: as above; conditions: for Fold changes of MICs: EKO-35 araC::macAB Pore compared to EKO-35-Pore; for Minimum inhibitory concentration: EKO-35 araC::macAB Pore, technical duplicate
Procedure, shortened: as §2

EKO-35 araC::mdtBC Pore = assay: as above; conditions: for Fold changes of MICs: EKO-35 araC::mdtBC Pore compared to EKO-35-Pore; for Minimum inhibitory concentration: EKO-35 araC::mdtBC Pore, technical duplicate
Procedure, shortened: as §2

EKO-35 araC::mdtEF Pore = assay: as above; conditions: for Fold changes of MICs: EKO-35 araC::mdtEF Pore compared to EKO-35-Pore; for Minimum inhibitory concentration, EKO-35 araC::mdtEF Pore: Table 14A, porinated, technical duplicate
Procedure, shortened: as §2

EKO-35 araC::mexCD Pore = assay: as above; conditions: for Fold changes of MICs: EKO-35 araC::mexCD Pore compared to EKO-35-Pore; for Minimum inhibitory concentration: EKO-35 araC::mexCD Pore, technical duplicate
Procedure, shortened: as §2

Substance | Fold change of MICs (E. coli EKO-35) | Minimum inhibitory concentration (MIC), EKO-35 (E. coli EKO-35) | Minimum Inhibitory Concentration, EKO-35 (E. coli EKO-35) | Minimum inhibitory concentration (MIC), ΔtolC (E. coli ΔtolC) | Minimum Inhibitory Concentration, ΔtolC (E. coli ΔtolC) | Minimum inhibitory concentration (MIC), K-12 [1] | Minimum Inhibitory Concentration, K-12 [1] | Fold change of MICs (EKO-35 araC::mdtBC) | Minimum Inhibitory Concentration, EKO-35 araC::mdtBC (EKO-35 araC::mdtBC) | Fold change of MICs (EKO-35 araC::mdtEF) | Minimum Inhibitory Concentration, EKO-35 araC::mdtEF (EKO-35 araC::mdtEF) | Minimum inhibitory concentration (MIC), Pore K-12 (wild-type (WT) K-12-Pore) | Minimum inhibitory concentration, K-12 (WT)-Pore (wild-type (WT) K-12-Pore) | Minimum inhibitory concentration (MIC), Pore ΔtolC (ΔtolC-Pore) | Minimum inhibitory concentration, ΔtolC-Pore (ΔtolC-Pore) | Fold changes of MICs (EKO-35-Pore) | Minimum inhibitory concentration (MIC), Pore EKO-35 (EKO-35-Pore) | Minimum inhibitory concentration, EKO-35-Pore (EKO-35-Pore) | Fold changes of MICs (EKO-35 araC::acrB Pore) | Minimum inhibitory concentration, EKO-35 araC::acrB Pore (EKO-35 araC::acrB Pore) | further results
benzalkonium chloride | 1 fold | 0.391 µg/mL | 0.391 µg/mL | 0.391 µg/mL | 0.391 µg/mL | 12.5 µg/mL | 12.5 µg/mL | 1 fold | 0.391 µg/mL | 4 fold | 1.563 µg/mL | 6.25 µg/mL | 6.25 µg/mL | 0.391 µg/mL | 0.391 µg/mL | 1 fold | 0.391 µg/mL | 0.391 µg/mL | 8 fold | 3.125 µg/mL | Fold changes of MICs [2]: 1 fold; Minimum inhibitory concentration [2]: 0.391 µg/mL; Fold changes of MICs (EKO-35 araC::acrD Pore): 1 fold; Minimum inhibitory concentration, EKO-35 araC::acrD Pore (EKO-35 araC::acrD Pore): 0.391 µg/mL; efflux pump-mediated resistance vs EKO-35-Pore (EKO-35 araC::acrEF Pore; AcrEF with the pore): impacted the ability of AcrEF to confer resistance; Fold changes of MICs (EKO-35 araC::acrEF Pore; EKO-35 araC::acrEF Pore compared to EKO-35-Pore): 2 fold; Minimum inhibitory concentration, EKO-35 araC::acrEF Pore (EKO-35 araC::acrEF Pore): 0.781 µg/mL; Fold changes of MICs (EKO-35 araC::emrAB Pore): 1 fold; Minimum inhibitory concentration (EKO-35 araC::emrAB Pore): 0.391 µg/mL; Fold changes of MICs (EKO-35 araC::emrKY Pore): 1 fold; Minimum inhibitory concentration (EKO-35 araC::emrKY Pore): 0.195 µg/mL; Fold changes of MICs (EKO-35 araC::macAB Pore): 1 fold; Minimum inhibitory concentration (EKO-35 araC::macAB Pore): 0.391 µg/mL; Fold changes of MICs (EKO-35 araC::mdtBC Pore): 1 fold; Minimum inhibitory concentration (EKO-35 araC::mdtBC Pore): 0.195 µg/mL; Fold changes of MICs (EKO-35 araC::mdtEF Pore): 4 fold; Minimum inhibitory concentration, EKO-35 araC::mdtEF Pore (EKO-35 araC::mdtEF Pore): 1.563 µg/mL; Fold changes of MICs (EKO-35 araC::mexCD Pore): 1 fold; Minimum inhibitory concentration (EKO-35 araC::mexCD Pore): 0.391 µg/mL
deoxycholate | 1 fold | 375 µg/mL | 375 µg/mL | 187.5 µg/mL | 187.5 µg/mL | 1500 µg/mL | 1500 µg/mL | 4 fold | 1500 µg/mL | 4 fold | 1500 µg/mL | 1500 µg/mL | 1500 µg/mL | 46.875 µg/mL | 46.875 µg/mL | 1 fold | 187.5 µg/mL | 187.5 µg/mL | 8 fold | 1500 µg/mL | efflux pump-mediated resistance vs EKO-35 (EKO-35 araC::mdtBC; MdtBC): conferred resistance; Fold changes of MICs [2]: 1 fold; Minimum inhibitory concentration [2]: 93.75 µg/mL; Fold changes of MICs (EKO-35 araC::acrD Pore): 8 fold; Minimum inhibitory concentration, EKO-35 araC::acrD Pore (EKO-35 araC::acrD Pore): 1500 µg/mL; Minimum inhibitory concentration, EKO-35 araC::acrEF Pore (EKO-35 araC::acrEF Pore): 1500 µg/mL; Fold changes of MICs (EKO-35 araC::emrAB Pore): 4 fold; Minimum inhibitory concentration (EKO-35 araC::emrAB Pore): 750 µg/mL; Fold changes of MICs (EKO-35 araC::emrKY Pore): 1 fold; Minimum inhibitory concentration (EKO-35 araC::emrKY Pore): 187.5 µg/mL; Fold changes of MICs (EKO-35 araC::macAB Pore): 1 fold; Minimum inhibitory concentration (EKO-35 araC::macAB Pore): 187.5 µg/mL; Fold changes of MICs (EKO-35 araC::mdtBC Pore): 4 fold; Minimum inhibitory concentration (EKO-35 araC::mdtBC Pore): 750 µg/mL; Fold changes of MICs (EKO-35 araC::mdtEF Pore): 8 fold; Minimum inhibitory concentration, EKO-35 araC::mdtEF Pore (EKO-35 araC::mdtEF Pore): 1500 µg/mL; Fold changes of MICs (EKO-35 araC::mexCD Pore): 2 fold; Minimum inhibitory concentration (EKO-35 araC::mexCD Pore): 375 µg/mL; efflux pump-mediated resistance vs EKO-35-Pore (EKO-35 araC::mexCD Pore; MexCD, OM compromised): no longer associated MexCD with resistance
